For one data set, the target named is human D3 receptor (Homo sapiens (Human), UniProt P35462). Put plainly: Radioligand binding assay, [3H]-spiperone, human D3 receptor. The settings on record: membranes of HEK293 EBNA cells expressing human D3; 0.5 nM [3H]-spiperone. Here is the method:
(§1) HEK293 EBNA cells were transiently transfected with expression plasmids encoding for the human D2 or D3 or for the human 5-HT2A receptor, respectively. The cells were harvested 48 h post-transfection, washed three times with cold PBS and stored at −80° C. prior to use. The pellet was suspended in cold 50 mM Tris-HCl buffer comprising 10 mM EDTA (pH 7.4) and was homogenized with a Polytron (Kinematica AG, Basel, Switzerland) for 20-30 sec at 12.000 rpm. After centrifugation at 48.000×g for 30 min at 4° C., the pellet was resuspended in cold 10 mM Tris-HCl buffer comprising 0.1 mM EDTA (pH 7.4), homogenized, and centrifuged as above. This pellet was further resuspended in a smaller volume of ice cold 10 mM Tris-HCl buffer comprising 0.1 mM EDTA (pH 7.4) and homogenized with a Polytron for 20-30 sec at 12.000 rpm. The protein content of this homogenate was determined with the Bio-Rad (Bradford) Protein Assay (Biorad Laboratories GmbH, München, Germany) according to the instructions of the manufacturer using gamma globulin as the standard. This homogenate was stored at −80° C. in aliquots and thawed immediately prior to use.
(§2) Aliquots of membrane preparations were thawed at RT, resuspended in assay buffer (D2, D3: 50 mM Tris-HCl, 120 mM NaCl, 5 mM MgCl2, 1 mM EDTA, 5 mM KCl, 1.5 mM CaCl2, pH=7.4; 5-HT2A: 50 mM Tris-HCl, 10 mM MgCl2, 1 mM EGTA, pH=7.4), homogenized with a Polytron for 20-30 sec at 12.000 rpm and adjusted to a final concentration of approximately 7.5 μg protein/well (D2, D3) and 15 μg protein/well (5-HT2A), respectively.
(§3) The binding affinity (Ki) of the compounds was determined using radioligand binding. Membranes were incubated in a total volume of 200 μl with a fixed concentration of radioligand (final concentration approximately 0.7 nM [^3H]-spiperone for D2, 0.5 nM [^3H]-spiperone for D3, and 1.1 nM [^3H]-ketanserin for 5-HT2A) and ten concentrations of test compound in ranging between 10 μM-0.1 nM for 1 h at RT. […] The nonspecific binding was determined with equally composed reaction mixtures in the presence of 10 μM unlabelled spiperone. Per well 45 μl of Microscint 40 (Perkin Elmer, Schwerzenbach, Switzerland) was added, plates for sealed, shaken for 20 min and counted for 3 min on a Topcount Microplate Scintillation Counter (Can berra Packard SA, Zürich, Switzerland) with quenching correction.
(§4) The CPM value for each duplicate of a concentration of competing compound was averaged (y1), then the % specific binding was calculated according to the equation (((y1−non-specific)/(total binding−non-specific))×100). Graphs were plotted with the % specific binding using XLfit, a curve fitting program that iteratively plots the data using Levenberg-Marquardt algorithm. The single site competition analysis equation used was y=A+((B−A)/(1+((x/C)D))), where y is the % specific binding, A is the minimum y, B is the maximum y, C is the IC50, x is the log 10 of the concentration of the competing compound and D is the slope of the curve (the Hill Coefficient). […] The affinity constant (K) was calculated using the Cheng-Prusoff equation Ki=(IC50/1+([L]/Kd), where [L] is the concentration of radioligand and Kd is the dissociation constant of the radioligand at the receptor as determined by the saturation isotherm.

For the next data set, the target named is human D2 receptor (Homo sapiens (Human), UniProt P14416). In words: Radioligand binding assay, [3H]-spiperone, human D2 receptor. To be noted: membranes of HEK293 EBNA cells expressing human D2; 0.7 nM [3H]-spiperone. Here is the method:
as §1, §2, §3
as §4, with “algorithm.” for “algorithm. The single site competition analysis equation used was y=A+((B−A)/(1+((x/C)D))), where y is the % specific binding, A is the minimum y, B is the maximum y, C is the IC50, x is the log 10 of the concentration of the competing compound and D is the slope of the curve (the Hill Coefficient).”

Another data set concerns the target human 5-HT2A receptor (Homo sapiens (Human), UniProt P28223). In words: Radioligand binding assay, [3H]-ketanserin, human 5-HT2A receptor. Here is the method:
as §1, §2, §3, §4

Setting [1] is: membranes of HEK293 EBNA cells expressing human 5-HT2A, 1.1 nM [3H]-ketanserin.

Each structure is given as a SMILES string. Read-outs that look alike come from different tables or passages of the source.

Sequence of human D3 receptor (P35462 whole entry): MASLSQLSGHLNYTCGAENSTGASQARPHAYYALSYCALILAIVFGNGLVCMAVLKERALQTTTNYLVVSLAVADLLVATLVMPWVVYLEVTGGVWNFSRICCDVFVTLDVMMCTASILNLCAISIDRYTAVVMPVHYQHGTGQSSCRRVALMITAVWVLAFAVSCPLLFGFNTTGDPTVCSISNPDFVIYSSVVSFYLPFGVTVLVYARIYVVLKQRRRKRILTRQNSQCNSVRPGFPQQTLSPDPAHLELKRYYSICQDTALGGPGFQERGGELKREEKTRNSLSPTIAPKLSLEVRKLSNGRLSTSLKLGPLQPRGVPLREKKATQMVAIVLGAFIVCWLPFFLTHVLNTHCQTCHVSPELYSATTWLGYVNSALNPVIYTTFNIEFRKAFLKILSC
Sequence of human 5-HT2A receptor (P28223 whole entry): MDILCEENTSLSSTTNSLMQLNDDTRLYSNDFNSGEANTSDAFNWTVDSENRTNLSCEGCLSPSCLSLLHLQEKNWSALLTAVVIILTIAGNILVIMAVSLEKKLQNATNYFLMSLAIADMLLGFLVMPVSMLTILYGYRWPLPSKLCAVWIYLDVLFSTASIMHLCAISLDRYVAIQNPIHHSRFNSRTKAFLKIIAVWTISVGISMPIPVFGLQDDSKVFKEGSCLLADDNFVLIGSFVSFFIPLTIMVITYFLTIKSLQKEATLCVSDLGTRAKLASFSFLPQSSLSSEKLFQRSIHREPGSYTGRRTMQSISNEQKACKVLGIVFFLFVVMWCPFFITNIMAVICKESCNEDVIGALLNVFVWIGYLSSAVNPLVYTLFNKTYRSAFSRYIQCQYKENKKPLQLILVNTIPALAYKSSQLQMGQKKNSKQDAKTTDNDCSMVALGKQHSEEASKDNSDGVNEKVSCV
Sequence of human D2 receptor (P14416 whole entry): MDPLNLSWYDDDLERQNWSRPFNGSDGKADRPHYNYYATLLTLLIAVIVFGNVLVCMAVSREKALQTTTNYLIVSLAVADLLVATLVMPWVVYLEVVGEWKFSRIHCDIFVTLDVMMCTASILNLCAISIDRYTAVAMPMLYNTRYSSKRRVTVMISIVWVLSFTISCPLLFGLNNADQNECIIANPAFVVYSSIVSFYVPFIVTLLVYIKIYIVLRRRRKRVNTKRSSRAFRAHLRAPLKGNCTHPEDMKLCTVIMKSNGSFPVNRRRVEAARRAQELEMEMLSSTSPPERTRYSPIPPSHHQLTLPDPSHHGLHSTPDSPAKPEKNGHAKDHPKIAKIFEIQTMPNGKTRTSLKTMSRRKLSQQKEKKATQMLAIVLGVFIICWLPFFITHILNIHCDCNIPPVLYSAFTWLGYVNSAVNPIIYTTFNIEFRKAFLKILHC

For the compound `COC(C)CC(=O)N[C@H]1CC[C@H](CCN2CCN(c3nccc4c3CCO4)CC2)CC1` (stereo partly drawn) [Example 139, trans-N-(4-{2-[4-(2,3-Dihydro-furo[3,2-c]pyridin-4-yl)-piperazin-1-yl]-ethyl}-cyclohexyl)-3-methoxy-butyramide], the melting point is 167 °C. The Ki at human D3 receptor stood at 40.6 nM. Besides, at human D2 receptor, the Ki is 801 nM. For the same compound, at human 5-HT2A receptor, the Ki stood at 30.4 nM.

The compound `CC#CC(=O)N[C@H]1CC[C@H](CCN2CCN(c3nccc4c3CCO4)CC2)CC1` [Example 82, But-2-ynoic acid trans-(4-{2-[4-(2,3-dihydro-furo[3,2-c]pyridin-4-yl)-piperazin-1-yl]-ethyl}-cyclohexyl)-amide] came in with a melting point of 193 °C. Also, at human D3 receptor, the Ki was 17.2 nM. Besides, the Ki on human D2 receptor is 426 nM. The Ki on human 5-HT2A receptor (setting [1]) amounted to 12.2 nM.

Compound `CC(C)(C)C(=O)N[C@H]1CC[C@H](CCN2CCN(c3nccc4c3CCO4)CC2)CC1` [Example 70, trans-N-(4-{2-[4-(2,3-Dihydro-furo[3,2-c]pyridin-4-yl)-piperazin-1-yl]-ethyl}-cyclohexyl)-2,2-dimethyl-propionamide] came in with a melting point of 185 °C. Besides, the Ki at human D3 receptor came to 59.2 nM. Further, the Ki at human D2 receptor is 524 nM. At human 5-HT2A receptor, the Ki amounted to 9.4 nM.

Regarding `O=C(N[C@H]1CC[C@H](CCN2CCN(c3nccc4c3CCO4)CC2)CC1)c1ccccc1` [Example 44, trans-N-(4-{2-[4-(2,3-Dihydro-furo[3,2-c]pyridin-4-yl)-piperazin-1-yl]-ethyl}-cyclohexyl)-benzamide], the melting point is 207.5 °C. The Ki at human D3 receptor was 7.66 nM. Moreover, the Ki on human D2 receptor was 481 nM. The Ki at human 5-HT2A receptor (setting [1]) came to 7.63 nM.

`CN(C)C(=O)CCC(=O)N[C@H]1CC[C@H](CCN2CCN(c3nccc4c3CCO4)CC2)CC1` [Example 86, trans-N-(4-{2-[4-(2,3-Dihydro-furo[3,2-c]pyridin-4-yl)-piperazin-1-yl]-ethyl}-cyclohexyl)-N′,N′-dimethyl-succinamide] returned a melting point of 188 °C. The Ki on human D3 receptor came to 37.6 nM. Further, on human D2 receptor, the Ki was 2560 nM. At human 5-HT2A receptor (setting [1]), the Ki was found to be 23.9 nM.

`O=C(Cc1noc2ccccc12)N[C@H]1CC[C@H](CCN2CCN(c3nccc4c3CCO4)CC2)CC1` [Example 129, trans-2-Benzo[d] isoxazol-3-yl-N-(4-{2-[4-(2,3-dihydro-furo[3,2-c]pyridin-4-yl)-piperazin-1-yl]-ethyl}-cyclohexyl)-acetamide] had a melting point of 217.5 °C. Besides, on human D3 receptor, the Ki came to 14.9 nM. Moreover, the Ki on human D2 receptor came to 1310 nM. The Ki at human 5-HT2A receptor came out at 27.8 nM.

`CC[C@@H](O)CC(=O)N[C@H]1CC[C@H](CCN2CCN(c3nccc4c3CCO4)CC2)CC1` [Example 140, (R)-3-Hydroxy-pentanoic acid trans-(4-{2-[4-(2,3-dihydro-furo[3,2-c]pyridin-4-yl)-piperazin-1-yl]-ethyl}-cyclohexyl)-amide] had a melting point of 161 °C. For the same compound, the inhibition constant (Ki) on human D3 receptor is 44.4 nM. For the same compound, the Ki on human D2 receptor was found to be 843 nM. Further, the Ki at human 5-HT2A receptor worked out at 42 nM.

For the compound `O=C(N[C@H]1CC[C@H](CCN2CCN(c3nccc4c3CCO4)CC2)CC1)c1ccc(-n2cccn2)cc1` [Example 126, trans-N-(4-{2-[4-(2,3-Dihydro-furo[3,2-c]pyridin-4-yl)-piperazin-1-yl]-ethyl}-cyclohexyl)-4-pyrazol-1-yl-benzamide], the melting point worked out at 229 °C. The Ki at human D3 receptor was 44.3 nM. Moreover, at human D2 receptor, the Ki was 478 nM. Further, the Ki at human 5-HT2A receptor (setting [1]) was 35.9 nM.

`O=C(N[C@H]1CC[C@H](CCN2CCN(c3nccc4c3CCO4)CC2)CC1)c1ccc(-n2cccc2)cc1` [Example 133, trans-N-(4-{2-[4-(2,3-Dihydro-furo[3,2-c]pyridin-4-yl)-piperazin-1-yl]-ethyl}-cyclohexyl)-4-pyrrol-1-yl-benzamide] gave a melting point of 234 °C. For the same compound, the Ki at human D3 receptor worked out at 24.4 nM. Besides, the Ki on human D2 receptor was 163 nM. For the same compound, the Ki at human 5-HT2A receptor (setting [1]) came to 24.2 nM.

Take `O=C(N[C@H]1CC[C@H](CCN2CCN(c3nccc4c3CCO4)CC2)CC1)C(F)(F)F` [Example 79, trans-N-(4-{2-[4-(2,3-Dihydro-furo[3,2-c]pyridin-4-yl)-piperazin-1-yl]-ethyl}-cyclohexyl)-2,2,2-trifluoro-acetamide]: the melting point came out at 213 °C. The Ki at human D3 receptor is 47.3 nM. The Ki at human D2 receptor came to 773 nM. In addition, at human 5-HT2A receptor (setting [1]), the Ki worked out at 19.2 nM.

Take `N#Cc1ccc(C(=O)N[C@H]2CC[C@H](CCN3CCN(c4nccc5c4CCO5)CC3)CC2)cc1` [Example 117, trans-4-Cyano-N-(4-{2-[4-(2,3-dihydro-furo[3,2-c]pyridin-4-yl)-piperazin-1-yl]-ethyl}-cyclohexyl)-benzamide]: the melting point turned out to be 243.5 °C. Moreover, on human D3 receptor, the Ki was 28 nM. The Ki on human D2 receptor was determined as 381 nM. The Ki on human 5-HT2A receptor (setting [1]) is 13 nM.

In the case of `O=C(Cc1ccc2c(c1)OCO2)N[C@H]1CC[C@H](CCN2CCN(c3nccc4c3CCO4)CC2)CC1` [Example 122, trans-2-Benzo[1,3]dioxol-5-yl-N-(4-{2-[4-(2,3-dihydro-furo[3,2-c]pyridin-4-yl)-piperazin-1-yl]-ethyl}-cyclohexyl)-acetamide], the melting point turned out to be 212 °C. At human D3 receptor, the Ki amounted to 18.6 nM. The inhibitory constant (Ki) at human D2 receptor turned out to be 3040 nM. Besides, the Ki at human 5-HT2A receptor (setting [1]) came to 33.7 nM.

The compound `CO[C@@H](C)C(=O)N[C@H]1CC[C@H](CCN2CCN(c3nccc4c3CCO4)CC2)CC1` [Example 137, trans-(S)—N-(4-{2-[4-(2,3-Dihydro-furo[3,2-c]pyridin-4-yl)-piperazin-1-yl]-ethyl}-cyclohexyl)-2-methoxy-propionamide] registered a melting point of 158.5 °C. In addition, on human D3 receptor, the Ki turned out to be 252 nM. Moreover, on human D2 receptor, the Ki came to 788 nM. The Ki on human 5-HT2A receptor (setting [1]) was 20.1 nM.

Consider `CC(C)CC(=O)N[C@H]1CC[C@H](CCN2CCN(c3nccc4c3CCO4)CC2)CC1` [Example 71, trans-N-(4-{2-[4-(2,3-Dihydro-furo[3,2-c]pyridin-4-yl)-piperazin-1-yl]-ethyl}-cyclohexyl)-3-methyl-butyramide], for which the melting point is 202.5 °C. For the same compound, the Ki on human D3 receptor was 10.9 nM. Besides, the Ki on human D2 receptor turned out to be 655 nM. Moreover, the Ki on human 5-HT2A receptor (setting [1]) worked out at 15.7 nM.

Turning to `O=C(C[C@H]1COCCO1)N[C@H]1CC[C@H](CCN2CCN(c3nccc4c3CCO4)CC2)CC1` [Example 67, trans-N-(4-{2-[4-(2,3-Dihydro-furo[3,2-c]pyridin-4-yl)-piperazin-1-yl]-ethyl}-cyclohexyl)-2-(S)-[1,4]dioxan-2-yl-acetamide], the melting point was 192 °C. The Ki on human D2 receptor turned out to be 1460 nM. Besides, the Ki on human 5-HT2A receptor (setting [1]) is 8.15 nM.

`O=C(C[C@@H]1COCCO1)N[C@H]1CC[C@H](CCN2CCN(c3nccc4c3CCO4)CC2)CC1` [Example 61, trans-N-(4-{2-[4-(2,3-Dihydro-furo[3,2-c]pyridin-4-yl)-piperazin-1-yl]-ethyl}-cyclohexyl)-2-(R)-[1,4]dioxan-2-yl-acetamide] displayed a melting point of 193.5 °C. For the same compound, the Ki at human D2 receptor stood at 1120 nM. For the same compound, the Ki on human 5-HT2A receptor (setting [1]) stood at 11.8 nM.
